Our source for the IC50 values is US9604996B2 (Bayer Pharma Aktiengesellschaft, priority 2013, dated 2017).

The test concerns the target T1, human adenosine A2b receptor (Homo sapiens, UniProt P29275).
T1 construct: expressed in transfected cells; host or cells: CHO-K1 (Chinese Hamster Ovary) with CRE-luciferase reporter
T1 sequence (P29275 1-332): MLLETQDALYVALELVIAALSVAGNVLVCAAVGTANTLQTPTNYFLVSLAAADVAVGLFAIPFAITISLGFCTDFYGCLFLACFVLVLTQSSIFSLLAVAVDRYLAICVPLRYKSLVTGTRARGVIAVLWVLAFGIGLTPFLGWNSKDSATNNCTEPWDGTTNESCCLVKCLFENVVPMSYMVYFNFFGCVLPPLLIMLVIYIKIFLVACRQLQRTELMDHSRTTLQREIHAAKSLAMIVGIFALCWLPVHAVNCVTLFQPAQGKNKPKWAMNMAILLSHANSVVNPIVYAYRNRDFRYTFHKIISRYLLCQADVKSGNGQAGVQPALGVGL
In words: Cellular reporter gene (CRE-luciferase) A2b receptor antagonist assay in recombinant CHO-K1 cells stimulated with NECA. It is filed as cell-based. The following applies: recombinant CHO-K1 cell line, co-incubation with EC50 concentration of NECA, 3 hours, in some cases means, rounded to two significant digits. On the procedure:
B-1. Cellular In Vitro Tests for Determining A2b Receptor Activity and Adenosine Receptor Selectivity
The identification of selective antagonists of the human adenosine A2b receptor and the quantification of the efficacy and selectivity of the compounds according to the invention was carried out with the aid of recombinant cell lines for the human adenosine receptors A1, A2a, A2b and A3. These cell lines were originally derived from an ovarepithelial cell of the hamster (Chinese Hamster Ovary, CHO-K1, American Type Culture Collection, Manassas, Va. 20108, USA). In addition to the respective recombinantly expressed adenosine receptor for testing the efficacy at the A1, A2a and A2b receptors, the cell lines contain a reporter gene construct where expression of the firefly (Photinus pyralis) luciferase is under the control of a promoter which can be activated via intracellular signal cascades by stimulation of the receptors with the (not subtype-selective) adenosine receptor agonist NECA (5′-N-ethylcarboxamidoadenosine) [S. J. Hill, J. G. Baker, S. Rhees, Curr. Opin. Pharmacol. 1, 526-532 (2001)].
In the case of the A2a and A2b cell lines, this is a minimal promoter having a plurality of cAMP-responsive elements (CRE). Stimulation of the Gs coupled A2b or A2a receptors by NECA ultimately leads, via formation of cAMP, to CRE-dependent induction of luciferase expression, which is detected 3 hours after the start of the incubation with NECA using a detection solution in a suitable luminometer. For testing the antagonists, initially, in a pre-experiment, the concentration of NECA which, at the test day in question, results in half-maximum stimulation of luciferase expression (EC50 concentration) is determined By joint incubation of this EC50 concentration of NECA with the substances to be tested, it is possible to determine their antagonistic activity.

For the compound `CCn1c(=O)c2c(C)c(C(=O)N3CCC(O)C(O)C3)sc2n(CCC(F)(F)F)c1=O` (single isomer, unassigned) [Example 117, 6-[(3,4-Dihydroxypiperidin-1-yl)carbonyl]-3-ethyl-5-methyl-1-(3,3,3-trifluoropropyl)thieno [2,3-d]pyrimidine-2,4(1H,3H)-dione], the IC50 worked out at 140 nM.
In the case of `Cc1c(C(=O)N2CCC(O)CC2)sc2c1c(=O)n(CC1(c3ccccc3)CC1)c(=O)n2CCC(F)(F)F` [Example 49, 6-[(4-Hydroxypiperidin-1-yl)carbonyl]-5-methyl-3-[(1-phenylcyclopropyl)methyl]-1-(3,3,3-trifluoropropyl)thieno[2,3-d]pyrimidine-2,4(1H,3H)-dione] it was 68 nM.
On to `COCCn1c(=O)n(CC(F)(F)c2ccccc2)c(=O)c2c(C)c(C(=O)N3CCC(O)(CO)CC3)sc21` [Example 71, 3-(2,2-Difluoro-2-phenylethyl)-6-{[4-hydroxy-4-(hydroxymethyl)piperidin-1-yl]carbonyl}-1-(2-methoxyethyl)-5-methylthieno[2,3-d]pyrimidine-2,4(1H,3H)-dione], for which the half-inhibitory concentration (IC50) worked out at 420 nM.
For the compound `Cc1c(C(=O)N2CCC(O)CC2)sc2c1c(=O)n(CC(F)c1ccccc1)c(=O)n2CCC(F)(F)F` (single isomer, unassigned) [Example 103, 3-(2-Fluoro-2-phenylethyl)-6-[(4-hydroxypiperidin-1-yl)carbonyl]-5-methyl-1-(3,3,3-trifluoropropyl)thieno[2,3-d]pyrimidine-2,4(1H,3H)-dione], the IC50 was 16 nM.
The same measure for `CCn1c(=O)c2c(C)c(C(=O)N3CCNC(=O)C3)sc2n(CCOC(F)(F)F)c1=O` [Example 130, 3-Ethyl-5-methyl-6-[(3-oxopiperazin-1-yl)carbonyl]-1-[2-(trifluoromethoxy)ethyl]thieno[2,3-d]pyrimidine-2,4(1H,3H)-dione]: 9 nM; for `CC1(O)CCN(C(=O)c2cc3c(=O)n(CCc4ccccc4)c(=O)n(CCC(F)(F)F)c3s2)CC1` [Example 91, 6-[(4-Hydroxy-4-methylpiperidin-1-yl)carbonyl]-3-(2-phenylethyl)-1-(3,3,3-trifluoropropyl)thieno[2,3-d]pyrimidine-2,4(1H,3H)-dione]: 260 nM.
On to `CCCn1c(=O)c2c(C)c(C(=O)N3CCC(C)(O)CC3)sc2n(CCOC(F)(F)F)c1=O` [Example 79, 6-[(4-Hydroxy-4-methylpiperidin-1-yl)carbonyl]-5-methyl-3-propyl-1-[2-(trifluoromethoxy)ethyl]thieno[2,3-d]pyrimidine-2,4(1H,3H)-dione], for which the IC50 stood at 8 nM.
Regarding `CCn1c(=O)c2c(CF)c(C(=O)N3CCC(C)(O)CC3)sc2n(CCC(F)(F)F)c1=O` [Example 144, 3-Ethyl-5-(fluoromethyl)-6-[(4-hydroxy-4-methylpiperidin-1-yl)carbonyl]-1-(3,3,3-trifluoropropyl)thieno[2,3-d]pyrimidine-2,4(1H,3H)-dione], the IC50 is 170 nM.
As for `Cc1cccc(CCn2c(=O)c3c(C)c(C(=O)N4CCC(O)CC4)sc3n(CCC(F)(F)F)c2=O)c1` [Example 11, 6-[(4-Hydroxypiperidin-1-yl)carbonyl]-5-methyl-3-[2-(3-methylphenyl)ethyl]-1-(3,3,3-trifluoropropyl)thieno[2,3-d]pyrimidine-2,4(1H,3H)-dione], the IC50 came out at 510 nM.
With `Cc1c(C(=O)N2CCC(O)CC2)sc2c1c(=O)n(CCc1ccccn1)c(=O)n2CCC(F)(F)F` [Example 53, 6-[(4-Hydroxypiperidin-1-yl)carbonyl]-5-methyl-3-[2-(pyridin-2-yl)ethyl]-1-(3,3,3-trifluoropropyl)thieno[2,3-d]pyrimidine-2,4(1H,3H)-dione], the IC50 is 170 nM.
As to `CCn1c(=O)c2c(C(F)F)c(C(=O)N3CCNC(=O)C3)sc2n(CCC(F)(F)F)c1=O` [Example 131, 5-(Difluoromethyl)-3-ethyl-6-[(3-oxopiperazin-1-yl)carbonyl]-1-(3,3,3-trifluoropropyl)thieno[2,3-d]pyrimidine-2,4(1H,3H)-dione], the IC50 is 34 nM.
With `CCn1c(=O)c2c(C)c(C(=O)N3CCC(O)CC3)sc2n(CCC(C)C)c1=O` [Example 134, 3-Ethyl-6-[(4-hydroxypiperidin-1-yl)carbonyl]-5-methyl-1-(3-methylbutyl)thieno[2,3-d]pyrimidine-2,4(1H,3H)-dione], the IC50 was 360 nM.
Consider `COC(Cn1c(=O)c2c(C)c(C(=O)N3CCC(O)(CO)CC3)sc2n(CCC(F)(F)F)c1=O)C(F)(F)F` (single isomer, unassigned) [Example 115, 6-{[4-Hydroxy-4-(hydroxymethyl)piperidin-1-yl]carbonyl}-5-methyl-3-(3,3,3-trifluoro-2-methoxypropyl)-1-(3,3,3-trifluoropropyl)thieno[2,3-d]pyrimidine-2,4(1H,3H)-dione], for which the IC50 stood at 610 nM.
The same measure for `CCn1c(=O)c2c(C)c(C(=O)N3CCNC(=O)C3)sc2n(CCOC)c1=O` [Example 37, 3-Ethyl-1-(2-methoxyethyl)-5-methyl-6-[(3-oxopiperazin-1-yl)carbonyl]thieno[2,3-d]pyrimidine-2,4(1H,3H)-dione]: 340 nM; for `CCc1c(C(=O)N2CCNC(=O)C2)sc2c1c(=O)n(CC)c(=O)n2CCC(F)(F)F` [Example 98, 3,5-Diethyl-6-[(3-oxopiperazin-1-yl)carbonyl]-1-(3,3,3-trifluoropropyl)thieno[2,3-d]pyrimidine-2,4(1H,3H)-dione]: 100 nM.
On to `C#CCCn1c(=O)c2c(C)c(C(=O)N3CCC(O)CC3)sc2n(CCC(F)(F)F)c1=O` [Example 61, 3-(But-3-yn-1-yl)-6-[(4-hydroxypiperidin-1-yl)carbonyl]-5-methyl-1-(3,3,3-trifluoropropyl)thieno[2,3-d]pyrimidine-2,4(1H,3H)-dione], for which the IC50 is 17 nM.
The same measure for `CCn1c(=O)c2c(C)c(C(=O)N3CCC(O)C(C)C3)sc2n(CCC(F)(F)F)c1=O` (stereo not drawn) [Example 73, 3-Ethyl-6-[(4-hydroxy-3-methylpiperidin-1-yl)carbonyl]-5-methyl-1-(3,3,3-trifluoropropyl)thieno [2,3-d]pyrimidine-2,4(1H,3H)-dione (enantiomer pair 1)]: 53 nM; for `CCn1c(=O)c2c(C)c(C(=O)N3CCC(O)(C(F)(F)F)CC3)sc2n(CCC(F)(F)F)c1=O` [Example 22, 3-Ethyl-6-{[4-hydroxy-4-(trifluoromethyl)piperidin-1-yl]carbonyl}-5-methyl-1-(3,3,3-trifluoropropyl)thieno[2,3-d]pyrimidine-2,4(1H,3H)-dione]: 67 nM.
In the case of `CCn1c(=O)c2c(C(F)F)c(C(=O)N3CCC(C)(O)CC3)sc2n(CCOC(F)(F)F)c1=O` [Example 127, 5-(Difluoromethyl)-3-ethyl-6-[(4-hydroxy-4-methylpiperidin-1-yl)carbonyl]-1-[2-(trifluoromethoxy)ethyl]thieno[2,3-d]pyrimidine-2,4(1H,3H)-dione] it was 9.5 nM; in that of `CCn1c(=O)c2c(C(F)(F)F)c(C(=O)N3CCNC(=O)C3)sc2n(CCC(F)(F)F)c1=O` [Example 42, 3-Ethyl-6-[(3-oxopiperazin-1-yl)carbonyl]-5-(trifluoromethyl)-1-(3,3,3-trifluoropropyl)thieno[2,3-d]pyrimidine-2,4(1H,3H)-dione], 88 nM.
